Laboratory results from the supplement of paper PMC11061612.

Legend:
[1] = compound: CCN(CCO)CCCOc1ccc2c(Nc3cc(CC(=O)Nc4cccc(F)c4)[nH]n3)ncnc2c1 [AZD2811]; details: max 1 µM
Summary of the method: (§1)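 Viability was measured with CellTiter-Glo 2.0 luminescence after 72 hours of dosing at a final DMSO of typically 0.2%, and scaled between blank-well and DMSO-well means. Beforehand, cancer cell lines sat 24 hours at 37°C and 5% CO2 in 1536-well plates in 7.5 μl DMEM/F12 or RPMI with 10% FBS. A non-linear mixed effects model fitted two-parameter logistic curves to the dose responses. The single-agent IC50 comes from these fits.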

[2] = compound: CCc1c2c(nc3ccc(O)cc13)-c1cc3c(c(=O)n1C2)COC(=O)[C@]3(O)CC [SN-38]; details: max 0.3 µM
Summary of the method: as §1

[3] = compound: Cc1c2c(nn1C)CSCc1cc(n(C)n1)CSc1cc(c3ccccc3c1)OCCCc1c(C(=O)O)n(C)c3c-2c(Cl)ccc13 [AZD5991]; details: max 1 µM
Summary of the method: as §1

[4] = compound: COc1cc2ncnc(Nc3ccc(F)c(Cl)c3)c2cc1OCCCN1CCOCC1 [Gefitinib]; details: max 10 µM
Summary of the method: as §1

[5] = compound: CS(=O)(=O)CCNCc1ccc(-c2ccc3ncnc(Nc4ccc(OCc5cccc(F)c5)c(Cl)c4)c3c2)o1 [Lapatinib]; details: max 10 µM
Summary of the method: as §1

[6] = compound: COc1nnc2ccc(N3CCC(c4ccc(OCCN5CCN(C)C(=O)[C@H]5C)cc4)CC3)nn12 [AZD5153]; details: max 1 µM
Summary of the method: as §1

[7] = compound: C1CC(C1)(C(=O)[O-])C(=O)[O-].N.N.[Pt+2] [Carboplatin]; details: max 10 µM
Summary of the method: as §1

[8] = compound: CN(CC[C@H](CSC1=CC=CC=C1)NC2=C(C=C(C=C2)S(=O)(=O)NC(=O)C3=CC=C(C=C3)N4CCC(CC4)[C@H](C5=CC=CC=C5C6=CC=C(C=C6)Cl)O)S(=O)(=O)C(F)(F)F)CCO [AZD4320]; details: max 1 µM
Summary of the method: as §1

[9] = compound: O=C(Nc1ccc2[nH]nc(-c3ccncc3)c2c1)[C@@H]1CCN(CC(=O)N2CCN(c3ccc(-c4ncccn4)cc3)CC2)C1; details: max 5 µM
Summary of the method: as §1

[10] = compound: COc1cc([C@@H]2c3cc4c(cc3[C@@H](O[C@@H]3O[C@@H]5CO[C@@H](C)O[C@H]5[C@H](O)[C@H]3O)[C@H]3COC(=O)[C@H]23)OCO4)cc(OC)c1O [Etoposide]; details: max 10 µM
Summary of the method: as §1

[11] = compound: O=c1[nH]cc(F)c(=O)[nH]1 [5-Fluorouracil]; details: max 20 µM
Summary of the method: as §1

[12] = compound: COc1cccc(OCCCN)c1-c1cc(Nc2cnc(C#N)cn2)n[nH]1 [Prexasertib]; details: max 1 µM
Summary of the method: as §1

[13] = compound: C[C@@H](Oc1cc(-c2cnn(C3CCNCC3)c2)cnc1N)c1c(Cl)ccc(F)c1Cl [Crizotinib]; details: max 10 µM
Summary of the method: as §1

[14] = compound: CC(=O)O[C@H]1C(=O)[C@@]2(C)[C@H]([C@H](OC(=O)c3ccccc3)[C@]3(O)C[C@H](OC(=O)[C@H](O)[C@@H](NC(=O)c4ccccc4)c4ccccc4)C(C)=C1C3(C)C)[C@]1(OC(C)=O)CO[C@@H]1C[C@@H]2O [Paclitaxel]; details: max 3 µM
Summary of the method: as §1

[15] = compound: Nc1ccn([C@@H]2O[C@H](CO)[C@@H](O)C2(F)F)c(=O)n1 [Gemcitabine]; details: max 0.3 µM
Summary of the method: as §1

[16] = compound: C1CN(CCC1(C(=O)N[C@@H](CCO)C2=CC=C(C=C2)Cl)N)C3=NC=NC4=C3C=CN4 [AZD5363]; details: max 10 µM
Summary of the method: as §1

[17] = compound: Cc1cc2ncnn2cc1Nc1ncc2c(n1)n(C1CCOCC1)c(=O)n2C [AZD7648]; details: max 10 µM
Summary of the method: as §1

[18] = compound: COc1cc(Nc2ncc3c(n2)-c2ccc(Cl)cc2C(c2c(F)cccc2OC)=NC3)ccc1C(=O)O [Alisertib]; details: max 10 µM
Summary of the method: as §1

[19] = compound: Cn1cnc2c(F)c(Nc3ccc(Br)cc3Cl)c(C(=O)NOCCO)cc21 [Selumetinib]; details: max 10 µM
Summary of the method: as §1

[20] = compound: CC(C)n1c(=O)n(C)c2cnc3cc(F)c(-c4ccc(OCCCN5CCCCC5)nc4)cc3c21 [AZD1390]; details: max 0.3 µM
Summary of the method: as §1

[21] = compound: C[C@@H](c1ccc2nccn2c1)n1nnc2ncc(-c3cnn(C)c3)nc21 [Savolitinib]; details: max 1 µM
Summary of the method: as §1

[22] = compound: C=CCn1c(=O)c2cnc(Nc3ccc(N4CCN(C)CC4)cc3)nc2n1-c1cccc(C(C)(C)O)n1 [AZD1775]
Summary of the method: as §1

[23] = compound: COc1cccc2c1C(=O)c1c(O)c3c(c(O)c1C2=O)C[C@@](O)(C(=O)CO)C[C@@H]3O[C@H]1C[C@H](N)[C@H](O)[C@H](C)O1 [Doxorubicin]; details: max 1 µM
Summary of the method: as §1

[24] = compound: CN(C)CCCOc1ccc(-c2ccc3ncc4c(c3c2)n(C2CCOCC2)c(=O)n4C)cn1 [AZD0156]
Summary of the method: as §1

[25] = compound: C[C@@H](Nc1cc(F)cc(F)c1)c1cc(C(=O)N(C)C)cc2c(=O)cc(N3CCOCC3)oc12 [AZD8186]; details: max 10 µM
Summary of the method: as §1

[26] = compound: CC(=O)Nc1cccc(-n2c(=O)n(C3CC3)c(=O)c3c(Nc4ccc(I)cc4F)n(C)c(=O)c(C)c32)c1 [Trametinib]; details: max 1 µM
Summary of the method: as §1

[27] = compound: CC1=CN2[C@@H](C1)C=NC3=CC(=C(C=C3C2=O)OC)OCCCCCOC4=C(C=C5C(=C4)N=C[C@@H]6CC(=CN6C5=O)C)OC [SG3199]; details: max 0.001 µM
Summary of the method: as §1

[28] = compound: CC(=O)c1c(C)c2cnc(Nc3ccc(N4CCNCC4)cn3)nc2n(C2CCCC2)c1=O [Palbociclib]; details: max 10 µM
Summary of the method: as §1

[29] = compound: CC1(C)CCC(CN2CCN(c3ccc(C(=O)NS(=O)(=O)c4ccc(NCC5CCOCC5)c([N+](=O)[O-])c4)c(Oc4cnc5[nH]ccc5c4)c3)CC2)=C(c2ccc(Cl)cc2)C1 [Venetoclax]; details: max 1 µM
Summary of the method: as §1

[30] = compound: CC1=C(C(=CC=C1)Cl)NC(=O)C2=CN=C(S2)NC3=CC(=NC(=N3)C)N4CCN(CC4)CCO [Dasatinib]; details: max 2 µM
Summary of the method: as §1

[31] = compound: O=C(c1cc(Cc2n[nH]c(=O)c3ccccc23)ccc1F)N1CCN(C(=O)C2CC2)CC1 [Olaparib]; details: max 10 µM
Summary of the method: as §1

[32] = compound: Cc1nc(-c2cn3c(n2)-c2ccc(-c4cnn(C(C)(C)C(N)=O)c4)cc2OCC3)n(C(C)C)n1 [Taselisib]; details: max 10 µM
Summary of the method: as §1

[33] = compound: N#Cc1cnc(Nc2cc(NC[C@H]3CNCCO3)c(C(F)(F)F)cn2)cn1 [SRA737]; details: max 10 µM
Summary of the method: as §1

[34] = compound: C[C@@H]1COCCN1C2=NC(=NC(=C2)C3(CC3)[S@](=N)(=O)C)C4=C5C=CNC5=NC=C4 [AZD6738]; details: max 10 µM
Summary of the method: as §1

[35] = compound: NC1(c2ccc(-c3nc4ccn5c(=O)[nH]nc5c4cc3-c3ccccc3)cc2)CCC1 [MK-2206]; details: max 10 µM
Summary of the method: as §1

| Cell Line | IC50, cell viability 72 h [1] | IC50, cell viability 72 h [2] | IC50, cell viability 72 h [3] | IC50, cell viability 72 h [4] | IC50, cell viability 72 h [5] | IC50, cell viability 72 h [6] | IC50, cell viability 72 h [7] | IC50, cell viability 72 h [8] | IC50, cell viability 72 h [9] | IC50, cell viability 72 h [10] | IC50, cell viability 72 h [11] | IC50, cell viability 72 h [12] | IC50, cell viability 72 h [13] | IC50, cell viability 72 h [14] | IC50, cell viability 72 h [15] | IC50, cell viability 72 h [16] | IC50, cell viability 72 h [17] | IC50, cell viability 72 h [18] | IC50, cell viability 72 h [19] | IC50, cell viability 72 h [20] | IC50, cell viability 72 h [21] | IC50, cell viability 72 h ([22]; max 3 µM) | IC50, cell viability 72 h [23] | IC50, cell viability 72 h ([24]; max 3 µM) | IC50, cell viability 72 h [25] | IC50, cell viability 72 h [26] | IC50, cell viability 72 h [27] | IC50, cell viability 72 h [28] | IC50, cell viability 72 h [29] | IC50, cell viability 72 h [30] | IC50, cell viability 72 h [31] | IC50, cell viability 72 h [32] | IC50, cell viability 72 h [33] | IC50, cell viability 72 h [34] | IC50, cell viability 72 h [35] | IC50, cell viability 72 h ([22]; max 1 µM) | IC50, cell viability 72 h ([24]; max 1 µM) |
| --- | --- | --- | --- | --- | --- | --- | --- | --- | --- | --- | --- | --- | --- | --- | --- | --- | --- | --- | --- | --- | --- | --- | --- | --- | --- | --- | --- | --- | --- | --- | --- | --- | --- | --- | --- | --- | --- |
| OVCAR-5 (Ovarian Carcinoma) | > 1 µM | > 0.3 µM | > 1 µM | > 10 µM | > 10 µM | 0.677 µM | > 10 µM | > 1 µM | 1.66 µM | > 10 µM | > 20 µM | 0.0405 µM | > 10 µM | 0.12 µM | > 0.3 µM | > 10 µM | > 10 µM | > 10 µM | 2.15 µM | > 0.3 µM | > 1 µM | > 3 µM | > 1 µM | > 3 µM | > 10 µM | 0.0896 µM | > 0.001 µM | > 10 µM | > 1 µM | 0.381 µM | > 10 µM | 2.07 µM | > 10 µM | 5.14 µM | > 10 µM | – | – |
| SAS (Oral Cavity Carcinoma) | > 1 µM | 0.00292 µM | > 1 µM | 9.89 µM | > 10 µM | 0.115 µM | > 10 µM | > 1 µM | 0.479 µM | 1.13 µM | > 20 µM | 0.059 µM | > 10 µM | 0.0777 µM | 0.013 µM | > 10 µM | > 10 µM | > 10 µM | 6.14 µM | > 0.3 µM | > 1 µM | 0.511 µM | 0.226 µM | > 3 µM | > 10 µM | 0.191 µM | > 0.001 µM | 5.61 µM | > 1 µM | > 2 µM | > 10 µM | 5.19 µM | > 10 µM | 4.42 µM | > 10 µM | – | – |
| SNU-16 (Gastric Carcinoma) | 0.479 µM | 0.0229 µM | 0.17 µM | 9.59 µM | > 10 µM | 0.241 µM | > 10 µM | > 1 µM | > 5 µM | 5.56 µM | > 20 µM | 0.0101 µM | 2.8 µM | < 0.003 µM | 0.00696 µM | > 10 µM | > 10 µM | 0.106 µM | > 10 µM | > 0.3 µM | > 1 µM | – | 0.301 µM | – | > 10 µM | > 1 µM | > 0.001 µM | 6.23 µM | > 1 µM | > 2 µM | > 10 µM | > 10 µM | 1.2 µM | 0.754 µM | > 10 µM | 0.522 µM | > 1 µM |
| SNU-449 (Hepatocellular Carcinoma) | > 1 µM | > 0.3 µM | > 1 µM | > 10 µM | > 10 µM | > 1 µM | > 10 µM | > 1 µM | > 5 µM | > 10 µM | > 20 µM | > 1 µM | > 10 µM | > 3 µM | > 0.3 µM | > 10 µM | > 10 µM | > 10 µM | > 10 µM | > 0.3 µM | > 1 µM | > 3 µM | > 1 µM | > 3 µM | > 10 µM | > 1 µM | > 0.001 µM | > 10 µM | > 1 µM | 1.26 µM | > 10 µM | > 10 µM | > 10 µM | > 10 µM | > 10 µM | – | – |
